Results taken from ChEMBL document CHEMBL2401643, “The discovery of potent selective NPY Y(2) antagonists” (Bioorg Med Chem Lett, 2013).
Active and inactive are the calls of the source. The calls are words filed in the database; no cut-off is given here.

Assays:
[1] = molecular target: T1, Neuropeptide Y receptor type 2 (Homo sapiens, UniProt P49146); assay: (§1) Displacement of [125I]PYY from NPY-Y2 receptor in human KAN-TS cell membranes after 1 hr by scintillation counting analysis
T1 sequence (P49146 whole entry): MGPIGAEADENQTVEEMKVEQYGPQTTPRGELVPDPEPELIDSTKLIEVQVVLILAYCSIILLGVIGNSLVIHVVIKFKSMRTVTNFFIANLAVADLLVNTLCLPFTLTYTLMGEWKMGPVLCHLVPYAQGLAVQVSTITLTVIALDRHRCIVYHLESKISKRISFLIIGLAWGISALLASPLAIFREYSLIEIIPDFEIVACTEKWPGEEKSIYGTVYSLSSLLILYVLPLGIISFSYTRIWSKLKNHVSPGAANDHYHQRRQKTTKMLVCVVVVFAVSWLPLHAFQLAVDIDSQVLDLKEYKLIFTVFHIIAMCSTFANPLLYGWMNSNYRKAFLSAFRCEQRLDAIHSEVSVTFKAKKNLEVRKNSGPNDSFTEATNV

Rattus norvegicus = assay: Receptor occupancy in Sprague-Dawley rat brain at 10 mg/kg, sc by LC/MS analysis; assay type: functional
[2] = molecular target: T1, Neuropeptide Y receptor type 2; assay: Antagonist activity at NPY-Y2 receptor in human KAN-TS cell membranes assessed as inhibition of PYY-stimulated [35S]GTPgammaS binding preincubated for 30 mins prior to [35S]GTPgammaS-treatment measured after 1 hr; assay type: functional; conditions: read-out: pA2 (converted)
[3] = molecular target: T2, Microsomal triglyceride transfer protein large subunit (Homo sapiens, UniProt P55157); assay: Inhibition of MTP (unknown origin)-mediated triglyceride transfer from donor to acceptor vesicles preincubated for 5 mins followed by enzyme addition by [14C]-counting analysis
T2 sequence (P55157 whole entry): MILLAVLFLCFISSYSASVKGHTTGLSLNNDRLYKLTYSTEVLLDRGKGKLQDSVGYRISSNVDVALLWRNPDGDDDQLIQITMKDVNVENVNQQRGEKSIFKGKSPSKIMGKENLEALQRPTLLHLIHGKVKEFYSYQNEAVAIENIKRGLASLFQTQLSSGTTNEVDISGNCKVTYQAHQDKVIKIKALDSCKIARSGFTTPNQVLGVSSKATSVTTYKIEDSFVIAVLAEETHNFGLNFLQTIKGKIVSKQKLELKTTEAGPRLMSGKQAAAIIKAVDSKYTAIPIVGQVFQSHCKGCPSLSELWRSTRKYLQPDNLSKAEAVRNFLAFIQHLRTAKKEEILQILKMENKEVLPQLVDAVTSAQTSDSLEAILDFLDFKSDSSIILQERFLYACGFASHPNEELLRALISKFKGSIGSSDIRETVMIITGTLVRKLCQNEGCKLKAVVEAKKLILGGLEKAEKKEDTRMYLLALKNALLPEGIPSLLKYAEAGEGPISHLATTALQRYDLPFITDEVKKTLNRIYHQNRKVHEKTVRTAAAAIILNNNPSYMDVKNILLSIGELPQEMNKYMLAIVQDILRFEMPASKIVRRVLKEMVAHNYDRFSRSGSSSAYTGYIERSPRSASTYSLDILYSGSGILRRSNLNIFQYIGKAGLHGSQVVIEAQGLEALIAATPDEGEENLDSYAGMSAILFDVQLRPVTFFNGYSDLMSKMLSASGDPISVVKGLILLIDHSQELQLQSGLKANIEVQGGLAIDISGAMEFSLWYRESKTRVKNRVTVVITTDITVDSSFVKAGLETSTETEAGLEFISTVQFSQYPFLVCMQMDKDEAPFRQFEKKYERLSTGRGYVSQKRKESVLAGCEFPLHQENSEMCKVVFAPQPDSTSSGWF

[4] = Metabolic stability in rat liver microsomes assessed as compound remaining after 15 mins; assay type: ADME, Microsome; conditions: read-out: Stability
[5] = Metabolic stability in human liver microsomes assessed as compound remaining after 15 mins; assay type: ADME, Microsome; conditions: read-out: Stability
[6] = molecular target: T2, Microsomal triglyceride transfer protein large subunit; assay: Inhibition of MTP (unknown origin)
[7] = molecular target: T3, Neuropeptide Y receptor type 2 (Homo sapiens) (UniProt P49146); assay: as §1
T3 sequence (whole entry): T1 sequence (P49146 whole entry)

IC50 [1] [nM] | remaining at 0.25 h [4] [%] | remaining at 0.25 h [5] [%] | SMILES | other results
70 | – | – | CCNC(=O)C(c1ccccc1)C1CCN(c2ccc(NC(=O)c3ccccc3-c3ccsc3)cc2F)CC1 (centres undefined) | –
45 | – | – | CCNC(=O)C(c1ccccc1)C1CCN(c2ccc(C(=O)Nc3ccccc3-c3ccccc3)cc2F)CC1 (centres undefined) | –
24 | – | – | CCNC(=O)C(c1ccccc1)C1CCN(c2ccc(NC(=O)c3ccccc3-c3cccnc3)cc2F)CC1 (centres undefined) | –
12 | – | – | CCNC(=O)C(c1ccccc1)C1CCN(c2ccc(NC(=O)c3ccccc3-c3ccccc3)cc2F)CC1 (centres undefined) | –
27 | – | – | CCNC(=O)C(c1ccccc1)C1CCN(c2ccc(NC(=O)Nc3ccccc3-c3ccccc3)cc2F)CC1 (centres undefined) | –

The next lines start with the molecule.

SMILES | IC50 [1] [nM] | remaining at 0.25 h [4] [%] | remaining at 0.25 h [5] [%] | other results
CCNC(=O)C(c1ccccc1)C1CCN(c2ccc(NC(=O)c3c(C)noc3C)cc2F)CC1 (centres undefined) | 476 | – | – | –
CCNC(=O)C(c1ccccc1)C1CCN(c2ccc(NC(=O)Nc3c(C)noc3C)cc2F)CC1 (centres undefined) | – | – | – | Occ (Rattus norvegicus): inactive; Kb [2]: 3.98 nM; IC50 [3]: > 10000 nM
CCN(CC)C(=O)C(c1ccccc1)C1CCN(c2ccc(NC(=O)c3c(C)noc3C)cc2F)CC1 (centres undefined) | 37 | 3.3 | 5.3 | Occ (Rattus norvegicus; route subcutaneous): 50%; Kb [2]: 31.6 nM; IC50 [3]: > 10000 nM
CCN(CC)C(=O)C(c1ccccc1)C1CCN(c2ccc(NC(=O)c3ccccc3-c3cccnc3)cc2F)CC1 (centres undefined) | 7 | 98 | 73 | –
CCN(CC)C(=O)C(c1ccccc1)C1CCN(c2ccc(NC(=O)Nc3c(C)noc3C)cc2F)CC1 (centres undefined) | 12 | 17 | 1.5 | Occ (Rattus norvegicus): inactive; Kb [2]: 2 nM; IC50 [3]: > 10000 nM
CCN(CC)C(=O)C(c1ccccc1)N1CCN(c2ccc(NC(=O)c3ccccc3-c3cccnc3)cc2F)CC1 (centres undefined) | – | 1.7 | 1.4 | IC50 [6]: 710 nM
CCNC(=O)C(c1ccccc1)C1CCN(c2ccc(NC(=O)c3ccccc3Br)cc2F)CC1 (centres undefined) | 665 | – | – | –
CCNC(=O)C(c1ccccc1)C1CCN(c2ccc(NS(=O)(=O)c3ccccc3-c3ccccc3)cc2F)CC1 (centres undefined) | – | – | – | Activity [7]: inactive
